Values after ≈ are worked out from the molar mass of the structure shown.
Test system: DR-Mtb strains
Experiment: microbe, parasite or virus in culture
Format: cell-based
Details: Mycobacterium tuberculosis, read-out: MIC against all DR-Mtb strains

| SMILES | MIC [µg/mL] |
| --- | --- |
| COC(=O)c1cc(-c2cccc(NC(=S)Nc3ccc(Cl)cc3)c2)on1 [5f, Methyl 5-(3-(3-(4-chlorophenyl)thioureido)phenyl)isoxazole-3-carboxylate] | 0.5 to 4 (≈ 1.29 to 10.3 µM) |
| COC(=O)c1cc(-c2cccc(NC(=O)Nc3ccc(Cl)c(Cl)c3)c2)on1 [4t, Methyl 5-(3-(3-(3,4-dichlorophenyl)ureido)phenyl)isoxazole-3-carboxylate] | 0.5 to 4 (≈ 1.23 to 9.85 µM) |
| COC(=O)c1cc(-c2ccc(NC(=O)Nc3ccc(Cl)c(Cl)c3)cc2)on1 [4tb, Methyl 5-(4-(3-(3,4-dichlorophenyl)ureido)phenyl)isoxazole-3-carboxylate] | 1 to 4 (≈ 2.46 to 9.85 µM) |

Source: PMC9592870 (Molecular Diversity, 2022)
